Test results: patent publication US12295970B2, “Imidazoquinoline compounds and prodrugs thereof” (UNIVERSITY OF KANSAS, priority 2019, dated 2025)

How the values were obtained:
Type in all cases: cell-based
[1] = target: T1, hTLR8 (Homo sapiens, UniProt Q9NR97); experiment: SEAP reporter assay for hTLR-8 activity (HEK-Blue hTLR8 cells); details: for EC50: ± SD, hTLR8 transfected HEK-Blue cells, Null subtracted, three independent measurements, 12 hours, >100 = no activity observed at 100 μM, read-out: EC50 TLR8
T1 construct: host or cells: HEK293 (HEK-Blue hTLR8)
T1 sequence (Q9NR97 27-1041): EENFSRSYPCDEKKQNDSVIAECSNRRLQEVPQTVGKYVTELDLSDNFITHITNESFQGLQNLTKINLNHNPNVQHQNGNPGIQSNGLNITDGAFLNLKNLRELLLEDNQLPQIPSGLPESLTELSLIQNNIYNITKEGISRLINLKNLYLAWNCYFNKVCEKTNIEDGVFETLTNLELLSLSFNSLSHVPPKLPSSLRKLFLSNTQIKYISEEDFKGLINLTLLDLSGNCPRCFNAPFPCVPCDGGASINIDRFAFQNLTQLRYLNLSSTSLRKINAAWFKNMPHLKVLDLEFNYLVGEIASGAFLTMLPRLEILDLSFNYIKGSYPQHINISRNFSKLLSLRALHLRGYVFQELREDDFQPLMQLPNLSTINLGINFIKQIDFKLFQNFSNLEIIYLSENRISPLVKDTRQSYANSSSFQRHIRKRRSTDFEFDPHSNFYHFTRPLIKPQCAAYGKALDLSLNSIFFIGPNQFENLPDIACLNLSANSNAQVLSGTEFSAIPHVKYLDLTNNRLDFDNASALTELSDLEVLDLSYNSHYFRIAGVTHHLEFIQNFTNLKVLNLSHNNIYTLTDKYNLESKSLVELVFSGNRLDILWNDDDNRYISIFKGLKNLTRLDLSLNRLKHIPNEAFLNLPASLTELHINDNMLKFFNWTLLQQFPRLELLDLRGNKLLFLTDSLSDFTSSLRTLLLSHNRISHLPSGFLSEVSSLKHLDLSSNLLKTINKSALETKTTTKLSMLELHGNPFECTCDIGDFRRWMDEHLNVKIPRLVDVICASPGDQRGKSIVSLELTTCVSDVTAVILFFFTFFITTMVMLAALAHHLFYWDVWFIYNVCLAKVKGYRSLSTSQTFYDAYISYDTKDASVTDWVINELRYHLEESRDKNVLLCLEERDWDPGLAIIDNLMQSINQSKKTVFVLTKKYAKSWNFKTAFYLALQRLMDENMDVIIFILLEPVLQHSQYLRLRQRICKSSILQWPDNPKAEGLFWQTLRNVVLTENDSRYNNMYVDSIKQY
Protocol: (§1) TLR activation induces NF-κB production and subsequent SEAP secretion, which is measured using HEK-Detection media (InvivoGen) containing a colorimetric substrate for SEAP (UV-Vis, 637 nm).
(§2) The experiments followed manufacturer protocol as follows: SEAP levels were measured via absorbance at 637 nm using HEK-Blue Detection cell culture medium (InvivoGen), which contains a SEAP-specific colorimetric substrate. Compound stock solutions were first diluted in sterile DMSO at a concentration of 10 mM. Lower concentrations were prepared by serial dilution of the initial 10 mM stock samples into sterile DMSO and these solutions (22 μL) were subsequently diluted into sterile H2O (198 μL) using a BioTek Precision XS pipetting system. HEK-Blue hTLR7, HEK-Blue hTLR8, Null 1−k, and Null 1 cell suspensions in sterile HEK-Blue Detection medium were prepared at a density of 220,000 cells per mL. Clear bottom, 96-well tissue culture treated plates (Corning) were seeded with hTLR7 and Null 1−k or hTLR8 and Null 1 cell suspensions (180 μL/well), after which 20 μL of the various sample concentrations in 10% v/v DMSO/H2O were added (20 μL) in quadruplicate wells to yield the desired testing concentration in 1% v/v DMSO cell suspension. Plates were incubated at 37° C. and 5% CO2 in the dark. Absorbance measurements were taken at 637 nm at 12 hours, 4 replicates per concentration point, per cell line (hTLR7, hTLR8, Null 1−k, Null 1). Three independent measurements on different days were performed for each analog.
(§3) Corresponding well absorbance values for each concentration tested were averaged with respect to days tested, and the average relative NF-κB induction (UV-Vis, 637 nm) of the null cell lines (Null 1-k or Null 1) were subtracted from the respective average TLR expressing cell line (hTLR7 or hTLR8) absorbance averages. […] The three independent, normalized averages for each analog were then pooled, and the data was fit using the Hill-Slope model (GraphPad Prism v7.0) using the non-linear fit from the [Agonist] vs. response—Variable Slope (four parameters) with a hill slope constrained to less than 3.

[2] = test system: canine peripheral blood mononuclear cells (cPBMCs); experiment: Cytokine production in canine PBMCs by ELISA (Example 2); details: for Cytokine IFNg / Cytokine IL-2 / Cytokine IL-6 / Cytokine IL-10 / Cytokine IL-12 / Cytokine TNFa: ± SD, 29 hours, ELISA, triplicate
Protocol: The imidazoquinolines were further screened for cytokine production in canine peripheral blood mononuclear cells (cPBMCs). […] TNFα and IL-12 were chosen as they are typically seen in a Th-1 cytokine response.
Peripheral blood from a healthy canine donor was obtained with appropriate informed consent of the owner and under approved institutional guidelines. Blood (8 mL per tube) was drawn via sterile venipuncture into a BD Vacutainer cell preparation tube containing sodium heparin (BD Biosciences). PBMCs were isolated within one hour following procurement by density gradient centrifugation according to the manufacturer protocol and resuspended to 2.22×10^6 cells/mL in sterile RPMI 1640 medium with L-glutamine (Gibco) supplemented with 100 U/mL penicillin, 100 μg/mL streptomycin (Corning) and 10% (v/v) heat-inactivated Fetalgro (RMBIO). Corning 3917, 96-well tissue culture treated plates were seeded with the PBMC suspension (180 μL/well), 20 μL of the serially diluted TLR agonists were added in triplicate to yield the desired concentrations in a 1% (v/v) DMSO cell suspension. Cells were incubated at 37° C. in 5% CO2 for 9 hours (FIGS. 3A-3D) or 29 hours (Table 2) after which supernatants were removed and frozen at −80° C. Cytokine secretion levels were measured by ELISA (Duoset, R&D Systems) according to the manufacturer protocol. Samples and standards (n=3) were thawed and plated onto a Maxisorp flat-bottom, 384-well plate (Thermo Scientific) using a BioTek Precision XS pipetting system. Cytokine concentrations were determined by a hyperbolic or four-parameter logistic non-linear regression of the recombinant standards and subsequent interpolation using Graphpad Prism 7.0.

[3] = target: T2, hTLR7 (Homo sapiens, UniProt Q9NYK1); experiment: SEAP reporter assay for hTLR-7 activity (HEK-Blue hTLR7 cells); details: for EC50: ± SD, hTLR7 transfected HEK-Blue cells, Null subtracted, three independent measurements, 12 hours, read-out: EC50 TLR7
T2 construct: host or cells: HEK293 (HEK-Blue hTLR7)
T2 sequence (Q9NYK1 27-1049): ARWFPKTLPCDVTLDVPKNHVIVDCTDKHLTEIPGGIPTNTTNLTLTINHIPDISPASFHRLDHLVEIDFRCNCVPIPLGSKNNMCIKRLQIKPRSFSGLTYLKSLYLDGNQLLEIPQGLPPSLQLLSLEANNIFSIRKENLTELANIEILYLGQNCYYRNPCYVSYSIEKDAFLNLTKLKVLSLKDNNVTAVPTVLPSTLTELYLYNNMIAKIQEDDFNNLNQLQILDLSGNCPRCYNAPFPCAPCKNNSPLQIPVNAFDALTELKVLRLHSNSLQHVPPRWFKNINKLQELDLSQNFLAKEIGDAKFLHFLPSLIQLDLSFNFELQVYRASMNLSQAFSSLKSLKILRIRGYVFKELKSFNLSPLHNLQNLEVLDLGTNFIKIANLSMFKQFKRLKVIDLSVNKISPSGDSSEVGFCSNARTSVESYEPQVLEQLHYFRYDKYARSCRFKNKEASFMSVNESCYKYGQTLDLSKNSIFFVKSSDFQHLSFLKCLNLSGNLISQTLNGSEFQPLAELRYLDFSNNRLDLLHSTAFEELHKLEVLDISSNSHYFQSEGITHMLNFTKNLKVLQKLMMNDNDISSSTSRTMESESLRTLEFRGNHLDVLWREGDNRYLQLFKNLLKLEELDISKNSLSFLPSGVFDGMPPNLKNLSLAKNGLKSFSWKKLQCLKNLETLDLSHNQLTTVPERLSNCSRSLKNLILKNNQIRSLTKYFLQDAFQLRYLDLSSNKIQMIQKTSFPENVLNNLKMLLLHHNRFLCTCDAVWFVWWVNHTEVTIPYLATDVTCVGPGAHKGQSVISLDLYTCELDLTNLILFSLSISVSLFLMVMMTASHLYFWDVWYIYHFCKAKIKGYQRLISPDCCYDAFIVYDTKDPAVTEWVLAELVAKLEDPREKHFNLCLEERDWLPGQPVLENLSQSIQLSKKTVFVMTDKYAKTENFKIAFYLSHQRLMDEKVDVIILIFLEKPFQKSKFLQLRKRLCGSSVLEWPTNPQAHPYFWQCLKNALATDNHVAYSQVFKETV
Protocol: as §1, §2, §3

EC50 [1] | EC50 [3] | SMILES | Cytokine IFNg ([2]; 20 μM) | Cytokine IL-2 ([2]; 20 μM) | Cytokine IL-6 ([2]; 20 μM) | Cytokine IL-10 ([2]; 20 μM) | Cytokine IL-12 ([2]; 20 μM) | Cytokine TNFa ([2]; 20 μM) | agonist for TLR8 receptor (in words) [1] | agonist for TLR7 receptor (in words) [3] | cytokine induction (in words) [2] | IL-12 response (in words) ([2]; 20 μM) | TNFα response (in words) ([2]; 20 μM)
4.9 ± 0.6 µM | 0.63 ± 0.03 µM | CCOCc1nc2c(N)nc3cc(Cl)ccc3c2n1CC(C)(C)O [Compound 9, 4-Amino-7-chloro-2-(ethoxymethyl)-1-(2-hydroxy-2-methylpropyl)-1H-imidazo[4,5-c]quinoline] | 16 ± 2 pg/mL | 76 ± 59 pg/mL | 320 ± 76 pg/mL | 12 ± 3 pg/mL | 1900 ± 130 pg/mL | 70 ± 8 pg/mL | – | – | – | – | –
> 100 µM | 0.3 ± 0.02 µM | CCCCc1nc2c(N)nc3cc(Cl)ccc3c2n1CC(C)C [Compound 6, 4-Amino-2-butyl-7-chloro-1-(2-methylpropyl)-1H-imidazo[4,5-c]quinoline] | 7 ± 1 pg/mL | 63 ± 44 pg/mL | 240 ± 67 pg/mL | 14 ± 4 pg/mL | 760 ± 50 pg/mL | 91 ± 20 pg/mL | – | – | – | – | –
27 ± 6 µM | 3.5 ± 0.7 µM | CCOCc1nc2c(N)nc3cc(C#N)ccc3c2n1CC(C)(C)O [Compound 13, 4-Amino-7-carbonitrile-2-(ethoxymethyl)-1-(2-hydroxy-2-methylpropyl)-1H-imidazo[4,5-c]quinoline] | 0.2 ± 0.4 pg/mL | 46 ± 42 pg/mL | 214 ± 69 pg/mL | 6 ± 3 pg/mL | 13 ± 3 pg/mL | 80 ± 20 pg/mL | – | – | – | – | –
1.7 ± 0.3 µM | 0.081 ± 0.009 µM | CCCCc1nc2c(N)nc3cc(OC)ccc3c2n1CC(C)(C)O [Compound 5, 4-Amino-2-butyl-1-(2-hydroxy-2-methylpropyl)-7-methoxy-1H-imidazo[4,5-c]quinoline] | 14.5 ± 6 pg/mL | 82 ± 56 pg/mL | 290 ± 63 pg/mL | 14 ± 2 pg/mL | 2000 ± 160 pg/mL | 64 ± 12 pg/mL | – | – | – | – | –
> 100 µM | 6.8 ± 0.7 µM | CCOCc1nc2c(N)nc3cc(C#N)ccc3c2n1CC(C)C [Compound 11, 4-Amino-7-carbonitrile-2-(ethoxymethyl)-1-(2-methylpropyl)-1H-imidazo[4,5-c]quinoline] | 4 ± 3 pg/mL | 57 ± 14 pg/mL | 71 ± 20 pg/mL | 6 ± 2 pg/mL | 190 ± 62 pg/mL | 7 ± 1 pg/mL | – | – | – | – | –
> 100 µM | 0.91 ± 0.09 µM | CCOCc1nc2c(N)nc3cc(Cl)ccc3c2n1CC(C)C [Compound 7, 4-Amino-7-chloro-2-(ethoxymethyl)-1-(2-methylpropyl)-1H-imidazo[4,5-c]quinoline] | 5 ± 5 pg/mL | 50 ± 22 pg/mL | 280 ± 81 pg/mL | 20 ± 1 pg/mL | 781 ± 40 pg/mL | 114 ± 25 pg/mL | – | – | – | – | –
> 100 µM | 0.99 ± 0.4 µM | CCCCc1nc2c(N)nc3cc(C#N)ccc3c2n1CC(C)C [Compound 10, 4-Amino-2-butyl-7-carbonitrile-1-(2-methylpropyl)-1H-imidazo[4,5-c]quinoline] | 13 ± 5 pg/mL | 60 ± 41 pg/mL | 350 ± 95 pg/mL | 37 ± 10 pg/mL | 920 ± 170 pg/mL | 10 ± 1 pg/mL | – | – | – | – | –
– | 0.073 ± 0.005 µM | CCCCc1nc2c(N)nc3cc(O)ccc3c2n1CC(C)C [Compound 14, 4-Amino-2-butyl-7-hydroxy-1-(2-methylpropyl)-1H-imidazo[4,5-c]quinoline] | 9 ± 8 pg/mL | 79 ± 19 pg/mL | 330 ± 92 pg/mL | 17 ± 3 pg/mL | 102 ± 65 pg/mL | 270 ± 70 - pg/mL | – | – | barely potentiates any cytokine induction | one of the lowest IL-12 responses | one of the highest TNFα responses

SMILES | EC50 [1] | EC50 [3] | Cytokine IFNg ([2]; 20 μM) | Cytokine IL-2 ([2]; 20 μM) | Cytokine IL-6 ([2]; 20 μM) | Cytokine IL-10 ([2]; 20 μM) | Cytokine IL-12 ([2]; 20 μM) | Cytokine TNFa ([2]; 20 μM) | agonist for TLR8 receptor (in words) [1] | agonist for TLR7 receptor (in words) [3] | cytokine induction (in words) [2] | IL-12 response (in words) ([2]; 20 μM) | TNFα response (in words) ([2]; 20 μM)
CC(C)Cn1cnc2c(N)nc3ccccc3c21 [Compound 1, imiquimod, reference compound] | 25 ± 3 µM | 6.8 ± 0.8 µM | – | – | – | – | – | – | agonists | agonists | – | – | –
